Test results published in article PMC8953086, “Repurposing Avasimibe to Inhibit Bacterial Glycosyltransferases” (Pathogens, 2022).
pIC50: −log10 of the molar value.

Columns and labels:
SseK1 = SseK1 (Salmonella enterica, UniProt A0A0H3NK84); assay: biochemical
NleB = NleB (Citrobacter rodentium, UniProt A0A482PDI9); assay: biochemical
Sequence of NleB (A0A482PDI9 whole entry, looked up): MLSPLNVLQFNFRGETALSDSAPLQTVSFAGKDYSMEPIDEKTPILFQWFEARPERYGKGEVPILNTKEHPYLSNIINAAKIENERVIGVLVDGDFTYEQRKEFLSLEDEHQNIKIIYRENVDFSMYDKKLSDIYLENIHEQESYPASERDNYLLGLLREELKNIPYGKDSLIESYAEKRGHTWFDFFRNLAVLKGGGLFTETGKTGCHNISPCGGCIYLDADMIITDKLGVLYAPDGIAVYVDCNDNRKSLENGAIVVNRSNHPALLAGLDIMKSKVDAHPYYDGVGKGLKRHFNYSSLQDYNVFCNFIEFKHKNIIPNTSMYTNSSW

Sequence of SseK1 (A0A0H3NK84 whole entry, looked up): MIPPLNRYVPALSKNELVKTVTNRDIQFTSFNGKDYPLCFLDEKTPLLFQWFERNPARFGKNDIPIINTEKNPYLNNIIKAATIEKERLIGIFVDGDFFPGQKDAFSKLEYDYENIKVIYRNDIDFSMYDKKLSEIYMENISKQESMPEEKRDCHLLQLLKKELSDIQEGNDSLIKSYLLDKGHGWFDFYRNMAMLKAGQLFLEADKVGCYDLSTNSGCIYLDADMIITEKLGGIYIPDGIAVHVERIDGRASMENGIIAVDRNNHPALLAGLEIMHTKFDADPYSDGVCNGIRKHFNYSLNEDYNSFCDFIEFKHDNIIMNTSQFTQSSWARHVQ

## CC(C)c1cc(C(C)C)c(CC(=O)NS(=O)(=O)Oc2c(C(C)C)cccc2C(C)C)c(C(C)C)c1 [avasimibe]
SseK1
  pIC50: ~5.00
NleB
  pIC50: ~5.00
